Legend:
IL-1β = assay: Inhibition of secretion of IL-1β by LPS-stimulated U937 cells (ELISA); format: cell-based
Method: (§1) The impact of cannabidiol, extract of Silybum marianum (fruit without pappus) and combinations of these components on the production of cytokines IL-1β and TNFα by a U937 cell line were investigated.
(§2) U937 cells, were thawed and treated according to the manufacturer's instructions. The cultures were incubated for recovery at 37° C. with 5% CO2 until 70-80% confluency was reached (visual estimation). Then, approx. 0.3×10^6¢/mL (determined by counting) were seeded in 96 well plates containing 200 μL/well of complete growth medium. The cells were incubated at 37° C. with 5% CO2 until 60% confluency was reached (visual estimation, typically—after 48 hr).
(§3) A proper blank control was subtracted from the measurements.
(§4) The cells were incubated for 24 hr. at 37° C. with 5% CO2. After the incubation, the conditioned medium of the different treatment groups was collected under standardized conditions and centrifuged at 250×g for 5 min to remove particulates. Clear supernatants were frozen at −70° C. until cytokines analyses. The secretion levels of IL-1β and TNFα (a major inflammatory marker) were quantified by commercial ELISA.

TNFα = assay: Inhibition of secretion of TNFα by LPS-stimulated U937 cells (ELISA); format: cell-based
Method: as §1, §2, §3, §4

prostaglandin E2 (PGE2) = assay: Secretion of PGE2 by LPS-stimulated RAW 264.7 cells; format: cell-based; conditions: Mus musculus, RAW264.7, LPS 12.5 ng/ml, each component present at 2.5 μg/ml
Method: The impact of cannabidiol, extract of Silybum marianum (fruit without pappus) and extract of Centella asiatica (leaf) on the secretion of prostaglandin E2 (PGE2) was investigated.
RAW 264.7 cells (approx. 2.5×10^5¢/ml, by counting) were seeded in 96 well plates containing 170 μl/well of complete growth medium. The cells were incubated at 37° C. with 5% CO2 for 24 hr. Then, the medium was aspirated and replaced by LPS-containing medium (12.5 ng/ml) without or with the test components. In addition, naïve cells, vehicle-treated cells, Stimulated Control, and Stimulated Vehicle Control served as negative controls. Dexamethasone served as a positive control for anti-inflammatory assay. A Blank control group was included in the assay.
The spent media from all test groups were collected under standardized conditions and centrifuged at 250 g for 5 min to remove particulates. Clear supernatants were frozen at −70° C. until analysis. The secretion levels of PGE2 (an important inflammatory marker) were determined.

human sebocytes = conditions: cultured human sebocytes and human skin organ culture; cited from earlier work
[1] = Homo sapiens, U-937, 1 μg/mL lipopolysaccharides, 24 hr, each component present at 10 μg/ml
[2] = LPS-stimulated, summary of Table 2

C=C(C)[C@@H]1CCC(C)=C[C@H]1c1c(O)cc(CCCCC)cc1O [Sample 1, Cannabidiol]
inhibition at 10 µg/mL (IL-1β; [1]): 28.4% | effect on secretion of IL-1β (in words) (IL-1β; [2]): attenuates secretion | inhibition at 10 µg/mL (TNFα; [1]): 48% | effect on secretion of TNFα (in words) (TNFα; [2]): attenuates secretion | inhibition at 2.5 µg/mL (prostaglandin E2 (PGE2)): 24% | effect on lipogenic actions of arachidonic acid, linoleic acid and testosterone (human sebocytes): inhibited the lipogenic actions of various compounds | effect on sebocyte proliferation (human sebocytes): suppressed sebocyte proliferation
